# Assay results from PubChem BioAssay (NCI).
# “And” between values parts separate entries of the source, which are not always exact repeats. Equal values may be shown once.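 Grown in 96-well plates, cells were treated for 48 hours with each compound at five concentrations. Insufficient inhibition: endpoint recorded as highest concentration tested. GI50: concentration for 50% inhibition of growth. At the TGI there is no net growth.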
# Legend:
# SN12K1 renal = experiment: NCI tumour cell line growth inhibition, 48 h
# P388/ADR leukemia = experiment: NCI tumour cell line growth inhibition, 48 h
Compound,TGI (SN12K1 renal) [µM],TGI (P388/ADR leukemia) [µM],GI50 (P388/ADR leukemia)
COc1ccc(C(=O)/C(Br)=C/C(=O)O)cc1,22.6,108,–
N#Cc1cn(C2OC(CO)C(O)C2O)c2ncnc(N)c12 (centres undefined),3.13,–,0.0127 µM and 0.045 µM
